# Earlier results, collected in patent US10688070B2, “Serine glycerophospholipid preparation and method for treatment of seizures” (ENZYMOTEC LTD., priority 2013, dated 2020).
# Test system: Valproate adverse events (hepatotoxicity)
# Conditions: in vivo
smiles,measurement,value
"CC/C=C\C/C=C\C/C=C\C/C=C\C/C=C\CCCC(=O)O [EPA, Eicosapentanoic acid]",Effect on adverse events of Valproate,did not reveal the same effect
